Laboratory results from US11202787B2, “Use of ACTH in assessment and prophylactic treatment of hypokalemia associated with glucocorticoid receptor modulator treatment of Cushing's syndrome patients” (Corcept Therapeutics, Inc., priority 2018, dated 2021).

What was measured:
[1] = tested on: subjects in an Alzheimer's study; assay: Alzheimer's study: hypokalemia; type: in vivo, human
Excerpt: Clinically meaningful hypokalemia (≤3.1) has been reported in 16 of 821 (1.9%) mifepristone treated subjects (12 in completed double blind PMD trials, and 4 in a completed Alzheimer's trial), and in 5 of 626 (0.8%) placebo treated subjects in completed PMD trials.

cortisol = assay: Total serum cortisol during mifepristone treatment of Cushing's syndrome patients; type: in vivo, human; conditions: for Total Serum Cortisol Visit Values: Mean ± SD
Excerpt: The term “measuring the level,” in the context of cortisol, ACTH, mifepristone, or other compounds, refers to determining, detecting, or quantitating the amount, level, or concentration of, for example, cortisol, ACTH, mifepristone, or other compound in a sample obtained from a subject. Plasma or serum samples are often used for measuring ACTH or cortisol level.
The types of samples that are suitable for cortisol determination can be serum, plasma, saliva, urine, or any other biological fluid taken from a subject. In preferred embodiments, the sample is a serum sample, or is a plasma sample. The level of cortisol can be measured using various methods, including but not limited to, immunoassays, e.g., competitive immunoassay, radioimmunoassay (MA), immunofluorometric enzyme assay, and ELISA; competitive protein-binding assays; liquid chromatography (e.g., HPLC); and mass spectrometry, e.g., high-performance liquid chromatography/triple quadrupole-mass spectrometry (LC-MS/MS). In preferred embodiments, cortisol levels are measured using LC-MS/MS, such as performed by Quest Diagnostics (Secaucus, N.J. 07094).
The Cushing's syndrome study reported herein was conducted in accordance with the Declaration of Helsinki and Good Clinical Practice (GCP) according to International Conference on Harmonization (ICH) guidelines.
Dosing Schedule Dosing was started with 300 mg of mifepristone once per day for 14 days. After 14 days, if no clinical improvement was seen but the drug was well tolerated, the dose of mifepristone was increased to 600 mg once per day. After 4 weeks of dosing at 600 mg once per day, if no clinical improvement was seen but the drug was well tolerated, the dose was increased to 900 mg once per day. Dose escalation was based on weight with the maximum dose no higher than 20 mg/kg/day. […] After 4 weeks of dosing at 900 mg once per day, if no clinical improvement was seen but the drug was well tolerated, the dose was increased to 1200 mg once per day. Study duration was 24 weeks.
Potassium levels were obtained on every subject at either screening or the pre-drug administration baseline visit, and then also at every scheduled post-baseline visit. Potassium levels post-baseline were therefore obtained as early as day 7 and through day 210 (week 30 was the last visit and was the 6 week follow-up visit). ACTH, and cortisol were measured at six visits (week 2 (day 14), week 6 (day 42), week 10 (day 70), week 16 (day 112), and week 24 (day 168) week 6 follow-up (day 210)).

Structure (SMILES): CC#C[C@]1(O)CC[C@H]2[C@@H]3CCC4=CC(=O)CCC4=C3[C@@H](c3ccc(N(C)C)cc3)C[C@@]21C [mifepristone, 11β-(4-dimethylaminophenyl)-17β-hydroxy-17α-(1-propynyl)-estra-4,9-dien-3-one]
- Clinically meaningful hypokalemia (≤3.1), subjects ([1]; completed Alzheimer's trial): 4
- Hypokalemia in the range of 2.8 to 3.5 mEq/L ([1]; out of 33 subjects, 300 mg per day for 16 weeks): 9 subjects
- serum cortisol increase during mifepristone treatment (cortisol; 43 subjects with Cushing's disease): increased to a smaller degree
- Total Serum Cortisol Visit Values (cortisol; Day 14, Hypokalemic): 1261 ± 786 (8) nmol/L
- Total Serum Cortisol Visit Values (cortisol; Day 14, Non-Hypokalemic): 782 ± 246 (38) nmol/L
- Total Serum Cortisol Visit Values (cortisol; Day 42, Hypokalemic): 1274 ± 401 (6) nmol/L
- Total Serum Cortisol Visit Values (cortisol; Day 42, Non-Hypokalemic): 828 ± 249 (35) nmol/L
- Total Serum Cortisol Visit Values (cortisol; Day 70, Hypokalemic): 1390 ± 283 (6) nmol/L
- Total Serum Cortisol Visit Values (cortisol; Day 70, Non-Hypokalemic): 1025 ± 546 (30) nmol/L
- Total Serum Cortisol Visit Values (cortisol; Day 112, Hypokalemic): 1318 ± 677 (9) nmol/L
- Total Serum Cortisol Visit Values (cortisol; Day 112, Non-Hypokalemic): 813 ± 318 (23) nmol/L
- Total Serum Cortisol Visit Values (cortisol; Day 168, Hypokalemic): 1298 ± 597 (5) nmol/L
- Total Serum Cortisol Visit Values (cortisol; Day 168, Non-Hypokalemic): 948 ± 537 (37) nmol/L
- Total Serum Cortisol Visit Values (cortisol; Day 210 (6 week follow-up), Hypokalemic): 1228 ± 561 (3) nmol/L
- Total Serum Cortisol Visit Values (cortisol; Day 210 (6 week follow-up), Non-Hypokalemic): 696 ± 477 (37) nmol/L
